According to article PMC6017357, “In Vitro Inhibitory Effects of Synthetic Cannabinoid EAM-2201 on Cytochrome P450 and UDP-Glucuronosyltransferase Enzyme Activities in Human Liver Microsomes” (Molecules : A Journal of Synthetic Chemistry and Natural …, 2018):

Legend:
[1] = target: T1, CYP2D6 (Homo sapiens, UniProt P10635); test: CYP2D6-mediated bufuralol 1′-hydroxylation in pooled human liver microsomes; type: in vitro ADME; settings: up to 50 µM, without 30-min preincubation
T1 construct: from tissue; host or cells: ultrapooled human liver microsomes
T1 sequence (P10635 whole entry): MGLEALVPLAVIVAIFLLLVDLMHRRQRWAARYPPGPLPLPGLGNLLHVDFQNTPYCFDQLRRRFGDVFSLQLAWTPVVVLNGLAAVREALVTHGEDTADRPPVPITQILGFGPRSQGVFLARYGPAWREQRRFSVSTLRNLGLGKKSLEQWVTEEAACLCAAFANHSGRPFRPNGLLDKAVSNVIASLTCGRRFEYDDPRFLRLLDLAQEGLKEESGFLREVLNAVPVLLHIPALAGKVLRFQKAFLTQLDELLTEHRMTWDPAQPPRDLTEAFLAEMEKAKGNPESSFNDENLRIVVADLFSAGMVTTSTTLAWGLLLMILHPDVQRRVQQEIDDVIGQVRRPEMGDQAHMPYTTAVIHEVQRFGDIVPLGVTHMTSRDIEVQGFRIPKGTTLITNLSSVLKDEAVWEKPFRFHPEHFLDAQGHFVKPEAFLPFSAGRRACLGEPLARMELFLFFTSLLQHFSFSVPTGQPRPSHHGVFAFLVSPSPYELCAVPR
Description: The inhibitory potential (IC50 values) of EAM-2201 on CYP1A2, CYP2A6, CYP2C8, CYP2C9, CYP2C19, CYP2D6 and CYP3A4 were evaluated using ultrapooled human liver microsomes and a cocktail of seven CYP substrates followed by LC-tandem mass spectrometry (LC-MS/MS) as previously described. […] Aliquots (5 µL) of the diluted supernatants were analyzed using LC-MS/MS. […]
The metabolites formed from CYP substrates were simultaneously quantified using our previously described LC-MS/MS method. […] Quantification was performed by selected reaction monitoring (SRM) of the [M + H]^+ ion and the related product ion for each metabolite: acetaminophen, 152.1 > 110.3; N-desethylamodiaquine, 328.1 > 283.0; 7-hydroxycoumarin, 163.0 > 107.2; 4-hydroxybupropion, 256.1 > 238.0; 4′-hydroxydiclofenac, 312.0 > 231.1; 4′-hydroxy-mephenytoin, 235.1 > 150.1; 1′-hydroxybufuralol, 278.1 > 186.1; 1′-hydroxymidazolam, 341.9 > 324.0; ^13C2,^15N-acetaminophen, 155.1 > 111.2; and d9-1′-hydroxybufuralol, 287.2 > 187.0. […]

[2] = target: CYP3A4 (Homo sapiens, UniProt P08684); test: CYP3A4-mediated midazolam 1′-hydroxylation in human liver microsomes (IC50 and time-dependent inhibition); type: in vitro ADME; set-up: from tissue; host or cells: ultrapooled human liver microsomes
Sequence of CYP3A4 (P08684 whole entry): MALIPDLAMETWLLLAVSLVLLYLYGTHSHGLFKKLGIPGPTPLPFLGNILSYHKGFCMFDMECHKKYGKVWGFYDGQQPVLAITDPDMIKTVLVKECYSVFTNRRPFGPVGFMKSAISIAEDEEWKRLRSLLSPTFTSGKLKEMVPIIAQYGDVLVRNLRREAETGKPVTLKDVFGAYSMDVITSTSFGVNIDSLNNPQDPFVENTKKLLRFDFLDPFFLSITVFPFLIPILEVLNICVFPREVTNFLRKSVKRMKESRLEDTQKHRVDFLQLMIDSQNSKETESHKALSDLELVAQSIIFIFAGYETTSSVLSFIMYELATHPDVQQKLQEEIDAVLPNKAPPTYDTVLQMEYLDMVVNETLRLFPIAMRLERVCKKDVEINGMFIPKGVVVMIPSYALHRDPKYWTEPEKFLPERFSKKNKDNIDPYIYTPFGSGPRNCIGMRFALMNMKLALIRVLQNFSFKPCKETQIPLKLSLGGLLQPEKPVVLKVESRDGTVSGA
Description: The inhibitory potential (IC50 values) of EAM-2201 on CYP1A2, CYP2A6, CYP2C8, CYP2C9, CYP2C19, CYP2D6 and CYP3A4 were evaluated using ultrapooled human liver microsomes and a cocktail of seven CYP substrates followed by LC-tandem mass spectrometry (LC-MS/MS) as previously described. Each incubation mixture was prepared in a total volume of 100 µL as follows: pooled human liver microsomes (5.2 pmol CYP), 1.0 mM NADPH, 10 mM magnesium chloride, 50 mM potassium phosphate buffer (pH 7.4), various concentrations of EAM-2201 in DMSO (final concentrations of 0.1–50 µM, 0.5% DMSO) and a cocktail of seven CYP probe substrates in 50% acetonitrile (0.5% acetonitrile), including 50 µM phenacetin, 2.5 µM coumarin, 2.0 µM amodiaquine, 10 µM diclofenac, 100 µM [S]-mephenytoin, 5 µM bufuralol and 2.5 µM midazolam in 50% acetonitrile. After a 3-min preincubation at 37 °C, the reactions were initiated by adding NADPH and incubation proceeded for 15 min at 37 °C in a shaking water bath. The reactions were stopped by adding 100 µL of ice-cold methanol containing internal standards (^13C2,^15N-acetaminophen for acetaminophen and N-desethylamodiaquine; d9-1′-hydroxybufuralol for 4′-hydroxydiclofenac, 7-hydroxycoumarin, 4′-hydroxymephenytoin, 1′-hydroxybufuralol and 1′-hydroxy-midazolam). The incubation mixtures were centrifuged at 13,000× g for 4 min at 4 °C and 50 µL of each supernatant was diluted in 50 µL of water. Aliquots (5 µL) of the diluted supernatants were analyzed using LC-MS/MS. All assays were performed in triplicate and the mean values were used in calculations. […] Each reaction was initiated by adding the seven-CYP probe substrate cocktail described above.
The time-dependent inhibitory effects of EAM-2201 on CYP2C8, CYP2C9, CYP2C19 and CYP3A4 activities in ultrapooled human liver microsomes were evaluated using time- and concentration-dependent inhibition assays. Ultrapooled human liver microsomes (26.0 pmol CYP) were pre-incubated with various concentrations of EAM-2201 in DMSO (0.5% DMSO) in 50 mM potassium phosphate buffer (pH 7.4) in the presence of NADPH for predetermined time periods: 5–15 min for CYP2C8 activity, 5–20 min for CYP2C9 activity and 15–40 min for CYP2C19 and CYP3A4 activities. […] Aliquots (5 µL) of the diluted supernatants were analyzed using LC-MS/MS.
The metabolites formed from CYP substrates were simultaneously quantified using our previously described LC-MS/MS method. […]

CCc1ccc(C(=O)c2cn(CCCCCF)c3ccccc23)c2ccccc12 [EAM-2201, (4-ethyl-1-naphthalenyl)[1-(5-fluoropentyl)-1H-indol-3-yl]-methanone]
inhibition of CYP2D6-mediated bufuralol 1′-hydroxylation [1]: negligibly inhibited
IC50 [2]: 17.6 µM
kinact/Ki value for CYP3A4 ([2]; human liver microsomes): 102 M⁻¹ s⁻¹
kinact ([2]; human, ultrapooled human liver microsomes, pH 7.4, probe midazolam (2 µM), 1′-hydroxylation, read-out: kinact, time-dependent inhibition of CYP3A4 midazolam 1′-hydroxylase (converted)): 0.000417 s⁻¹
inhibition of CYP3A4-mediated midazolam 1′-hydroxylation ([2]; up to 50 µM, without 30-min preincubation, human liver microsomes): negligibly inhibited
